Laboratory results as given in article PMC12892976, “Alkylation-based optimization of antifungal FPPS inhibitors yields a potent, broad-spectrum lipophilic zoledronate derivative” (mBio, 2025).
Read-outs that look alike come from different tables or passages of the source.

Key:
[1] = test system: Aspergillus fumigatus; test: checkerboard drug interaction (FICI, MICc); format: cell-based;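 further: simplified diagonal checkerboard screen pairing antifungals with FPPS inhibitors against Aspergillus fumigatus, with FICI calculated under the Loewe additivity model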
Description: (§1) Drug interactions between antifungals and FPPS inhibitors were investigated using a simplified checkerboard diagonal screening method ([45]). […] FICIs were determined according to the Loewe additivity model ([17]).

[2] = test system: Aspergillus flavus; test: MIC/MFC broth microdilution (CLSI); conditions: ATCC204304
Description: (§2) Antifungal susceptibility was determined by broth microdilution according to the CLSI guidelines described in M27-Ed4 ([16]). […] MFC was determined by back-plating drug-treated cultures from MIC broths onto SDA plates. The MFC was defined as the lowest concentration from which no colonies could be cultured.

[3] = test system: Cryptococcus deuterogattii; test: checkerboard drug interaction (FICI, MICc);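 on all read-outs here: simplified diagonal checkerboard screen pairing antifungal drugs with FPPS inhibitors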; format: cell-based; conditions: C. deuterogattii; for INH FD (MIC-MICc fold decrease): fold decrease of inhibitor MIC
Description: as §1

[4] = test system: eight fungal species; test: MIC/MFC summary across the eight fungal species of Table 1; format: cell-based
Description: The antifungal activity of these compounds was evaluated according to CLSI guidelines ([16]).

[5] = test system: Cryptococcus neoformans; test: MIC/MFC broth microdilution (CLSI); conditions: Cryptococcus neoformans;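 further: susceptibility testing followed the CLSI M27-Ed4 broth microdilution document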
Description: as §2

[6] = test system: Candida glabrata; test: checkerboard drug interaction (FICI, MICc);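 on all read-outs here: simplified diagonal checkerboard screen pairing antifungals with FPPS inhibitors, FICI calculated under the Loewe additivity model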; format: cell-based; conditions: C. glabrata; for INH FD (MIC-MICc fold decrease): fold decrease of inhibitor MIC
Description: as §1

[7] = test system: Candida albicans; test: checkerboard drug interaction (FICI, MICc);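 on all read-outs here: antifungal plus FPPS inhibitor combinations on Candida albicans tested by a simplified diagonal checkerboard screen, with FICI calculated under the Loewe additivity model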; format: cell-based; conditions: C. albicans; for INH FD (MIC-MICc fold decrease): fold decrease of inhibitor MIC
Description: as §1

[8] = test system: eight fungal species; test: checkerboard interaction with azoles, summary across the eight species; format: cell-based; conditions: geometric mean MIC in combination with azoles
Text: Synergy between lipophilic FPPS inhibitors and azole antifungals was investigated by determining the fractional inhibitory concentration index (FICI) (Fig. 2; Table S1 Fig. S1) ([17]). […]. Derivatives PLA9 and 11, and PDA9, 11, and 12 antagonized azoles in C. albicans, C. neoformans, and C. deuterogattii, yet were largely synergistic in C. glabrata and S. cerevisiae. […].

[9] = test system: Trichophyton rubrum; test: checkerboard drug interaction (FICI, MICc);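 further: simplified diagonal checkerboard screen pairing azole antifungals with FPPS inhibitors, FICI calculated under the Loewe additivity model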; format: cell-based; conditions: T. rubrum
Description: as §1

[10] = test system: Cryptococcus neoformans; test: checkerboard drug interaction (FICI, MICc);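 on all read-outs here: antifungal plus FPPS inhibitor pairs tested against Cryptococcus neoformans by simplified diagonal checkerboard screening, FICI computed under the Loewe additivity model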; format: cell-based; conditions: C. neoformans; for INH FD (MIC-MICc fold decrease): fold decrease of inhibitor MIC
Description: as §1

[11] = test system: Aspergillus fumigatus; test: MIC/MFC broth microdilution (CLSI); conditions: ATCC204305
Description: as §2

[12] = test system: Aspergillus flavus; test: checkerboard drug interaction (FICI, MICc);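 further: simplified diagonal checkerboard screen pairing azole antifungals with FPPS inhibitors, FICI calculated under the Loewe additivity model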; format: cell-based; set-up: INH MICc (KET:INH) / INH MICc (FLC:INH): unit not given beside the values; conditions: A. flavus
[13] = test system: Cryptococcus deuterogattii; test: MIC/MFC broth microdilution (CLSI); conditions: Cryptococcus deuterogattii;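 further: broth microdilution per CLSI M27-Ed4. MFC is the lowest concentration yielding no colonies when MIC broths are subcultured onto SDA plates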
Description: as §2

[14] = test system: Candida albicans; test: MIC/MFC broth microdilution (CLSI); format: cell-based; conditions: Candida albicans SC5314
Description: as §2

[15] = test system: Saccharomyces cerevisiae; test: MIC/MFC broth microdilution (CLSI); format: cell-based; conditions: Saccharomyces cerevisiae S288c
Description: as §2

[16] = test system: Trichophyton rubrum; test: MIC/MFC broth microdilution (CLSI); conditions: Trichophyton rubrum
Description: as §2

[17] = test system: Saccharomyces cerevisiae; test: checkerboard drug interaction (FICI, MICc); format: cell-based; set-up: INH MICc / INH MICc (ITR:INH) / INH MICc (KET:INH) / INH MICc (FLC:INH): unit not given beside the values;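 further: simplified diagonal checkerboard screen pairing antifungals with FPPS inhibitors, FICI calculated under the Loewe additivity model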
[18] = test system: Candida glabrata; test: MIC/MFC broth microdilution (CLSI); conditions: Nakaseomyces glabratus, CBS138;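 further: broth microdilution following CLSI M27-Ed4, MFC taken as the lowest drug level yielding no growth once MIC wells were subcultured on SDA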
Description: as §2

[19] = test system: HEK-293T cells; test: MTT reduction cytotoxicity assay; format: cell-based; conditions: Homo sapiens, HEK-293T, 72 h, MTT, 72 h
[20] = Fractional Inhibitory Concentration Index, fluconazole + inhibitor
[21] = Fractional Inhibitory Concentration Index, itraconazole + inhibitor
[22] = Fractional Inhibitory Concentration Index, ketoconazole + inhibitor
[23] = MIC of the inhibitor in combination with fluconazole
[24] = MIC of the inhibitor in combination with itraconazole
[25] = MIC of the inhibitor in combination with ketoconazole
[26] = MIC-MICc fold decrease of fluconazole, negative = increase
[27] = MIC-MICc fold decrease of itraconazole, negative = increase
[28] = MIC-MICc fold decrease of ketoconazole, negative = increase
[29] = MIC-MICc fold decrease of the inhibitor, with fluconazole
[30] = MIC-MICc fold decrease of the inhibitor, with itraconazole
[31] = MIC-MICc fold decrease of the inhibitor, with ketoconazole
[32] = FLC:INH combination, MIC of the inhibitor in combination with FLC
[33] = FLC:INH combination, fold decrease of FLC MIC
[34] = ITR:INH combination, MIC of the inhibitor in combination with ITR
[35] = ITR:INH combination, fold decrease of ITR MIC
[36] = KET:INH combination, MIC of the inhibitor in combination with KET
[37] = KET:INH combination, fold decrease of KET MIC

CCCCCCCCCCCCN1CCC[C@H]1C(=O)N[C@H](CC(=O)O)C(=O)O [PDA12]
0.75: FICI ([6]; FLC:INH combination)
64: INH MICc [3, 36] | INH MICc [7, 34] | INH MICc [10, 34] | INH MICc (FLC:INH) [17, 23]
2.5: FICI ([3]; FLC:INH combination)
1: FLC FD (FLC:INH) [1, 26] | KET FD (KET:INH) [1, 28] | INH FD (FLC:INH) [1, 29] | ITR FD (ITR:INH) [9, 27] | FICI (ITR:INH) [12, 21] | FICI (KET:INH) [12, 22] | FLC FD (FLC:INH) [12, 26] | INH FD (FLC:INH) [12, 29]
≥4: FICI ([3]; ITR:INH combination) | FICI ([7]; ITR:INH combination) | FICI ([7]; KET:INH combination) | FICI (FLC:INH) [9, 20] | FICI (KET:INH) [9, 22] | FICI ([10]; FLC:INH combination) | FICI ([10]; KET:INH combination)
0.31: FICI ([6]; ITR:INH combination) | FICI ([6]; KET:INH combination) | FICI (KET:INH) [17, 22]
256: INH MICc (FLC:INH) [1, 23] | INH MICc (FLC:INH) [9, 23] | INH MICc (ITR:INH) [9, 24] | INH MICc (KET:INH) [9, 25] | INH MICc (FLC:INH) [12, 23]
3: FICI (ITR:INH) [9, 21]
0.63: FICI (ITR:INH) [17, 21]
-2: FLC FD (MIC-MICc fold decrease) [3, 33] | FLC FD (MIC-MICc fold decrease) [7, 33] | FLC FD (FLC:INH) [9, 26] | KET FD (KET:INH) [9, 28] | INH FD (FLC:INH) [9, 29] | INH FD (ITR:INH) [9, 30] | INH FD (KET:INH) [9, 31] | ITR FD (MIC-MICc fold decrease) [10, 35]
4: KET FD (MIC-MICc fold decrease) [3, 37] | INH FD (MIC-MICc fold decrease) ([3]; KET:INH combination) | ITR FD (MIC-MICc fold decrease) [6, 35] | KET FD (MIC-MICc fold decrease) [6, 37] | INH FD (MIC-MICc fold decrease) ([7]; ITR:INH combination) | INH FD (MIC-MICc fold decrease) ([10]; ITR:INH combination) | KET FD (KET:INH) [17, 28] | INH FD (FLC:INH) [17, 29]
16: INH MICc [7, 32] | INH FD (MIC-MICc fold decrease) ([7]; FLC:INH combination) | INH MICc (KET:INH) [17, 25] | INH FD (KET:INH) [17, 31]
> 128 µg/mL: MFC [2] | MIC [2] | MFC ([4]; across eight species, read-out: Geometric mean MFC) | MFC [5] | MIC [5] | MFC [11] | MIC [11] | MFC [13] | MIC [13] | MFC [14] | MIC [14] | MFC [15] | MIC [15] | MFC [16] | MFC [18] | MIC [18]
2: FICI (FLC:INH) [1, 20] | INH MICc (ITR:INH) [1, 24] | ITR FD (ITR:INH) [1, 27] | INH FD (KET:INH) [1, 31] | INH FD (MIC-MICc fold decrease) ([3]; FLC:INH combination) | INH FD (MIC-MICc fold decrease) ([3]; ITR:INH combination) | FLC FD (MIC-MICc fold decrease) [6, 33] | INH MICc [6, 34] | INH MICc [6, 36] | INH FD (MIC-MICc fold decrease) ([10]; FLC:INH combination) | INH FD (MIC-MICc fold decrease) ([10]; KET:INH combination) | FICI (FLC:INH) [12, 20] | ITR FD (ITR:INH) [12, 27] | KET FD (KET:INH) [12, 28] | INH FD (ITR:INH) [12, 30] | INH FD (KET:INH) [12, 31] | ITR FD (ITR:INH) [17, 27]
52.3: GM fungal MICc [8]
0.38: FICI (FLC:INH) [17, 20]
1.5: FICI (KET:INH) [1, 22]
0.5: FICI ([3]; KET:INH combination)
32: INH FD (MIC-MICc fold decrease) ([6]; FLC:INH combination) | INH MICc [7, 36] | INH MICc (ITR:INH) [17, 24]
2.06: FICI ([7]; FLC:INH combination)
235 µg/mL: MIC ([4]; geometric mean across eight species, read-out: GM fungal MIC) | MIC ([4]; read-out: Geometric mean MIC)
168 µg/mL: IC50 ([19]; HEK-293T cells, read-out: IC50) | IC50 ([19]; read-out: HEK IC50)
128 µg/mL: MIC [16]
128: INH MICc (KET:INH) [1, 25] | INH FD (ITR:INH) [1, 30] | INH MICc [3, 32] | INH MICc [3, 34] | INH FD (MIC-MICc fold decrease) ([6]; ITR:INH combination) | INH FD (MIC-MICc fold decrease) ([6]; KET:INH combination) | INH MICc [10, 32] | INH MICc [10, 36] | INH MICc (ITR:INH) [12, 24] | INH MICc (KET:INH) [12, 25]
-4: ITR FD (MIC-MICc fold decrease) [3, 35] | KET FD (MIC-MICc fold decrease) [7, 37] | FLC FD (MIC-MICc fold decrease) [10, 33] | KET FD (MIC-MICc fold decrease) [10, 37]
8: INH MICc [6, 32] | INH FD (MIC-MICc fold decrease) ([7]; KET:INH combination) | FLC FD (FLC:INH) [17, 26] | INH FD (ITR:INH) [17, 30]
2.25: FICI ([10]; ITR:INH combination)
< -4: ITR FD (MIC-MICc fold decrease) [7, 35]
0.51: FICI (ITR:INH) [1, 21]
